Counter-ions that a name gives are not always drawn.
Target: T1, GPR40 (Homo sapiens, UniProt O14842)
T1 construct: expressed in transfected cells
Experiment: GPR40 SAR Primary Assay (Elk-1/Gal4-luc+ reporter, luciferase activity)
Type: cell-based
Conditions: stable GPR40 Elk-1/Gal4-luc+ CHO cell line, 5 hours incubation
Description: An existing stable GPR40 Elk-1/Gal4-luc^+ CHO cell line generated by electroporation and functional cloning was used. Cells were maintained in a humidified incubator at 37° C./5% CO2 in complete media containing DMEM/F12 (Gibco, #11039-021), 5% FBS (Gibco, #16140-071) and 1% Glutamine (Gibco, #25030-081). Cell maintenance passages were made at 1:40 dilution every 3-4 days. Forty eight hours prior to assay, 15e6 cells were added to 200 ml of complete media then seeded into a 1200 cm^2-cell factory and returned to a humidified incubator at 37° C./5% CO2. 20 hours prior to assay, the growth media was removed and replaced with 200 ml of serum-free DMEM/F12 to quiesce background activity. At the time of assay, cells were harvested using non-enzymatic cell dissociation solution (Sigma, #C-5914), washed and counted. The 20 hour starve media was collected and used as condition media for cell assay plating. Cells were plated at a concentration of 10,000 cells/well in a total well volume of […] in black 96-well clear bottom polystyrene plates (CoStar, #3904). Test compounds were prepared as serial dilutions in 100% DMSO, then 1 ul was delivered to each well resulting in a final concentration of 1% DMSO. The plates were then returned to a humidified incubator at 37° C./5% CO2 for 5 hours. Following the incubation, the medium was replaced with 50 ul of a 1:1 mixture of SteadyGlo™ (Promega, #E2550) and dPBS containing 1 mM CaCl2 and 1 mM MgCl2. Plates were then sealed and subjected to dark adaptation at room temperature for 10 minutes. Luciferase activity was measured on a Packard TopCount™ microplate scintillation counter using 2 seconds per well count time.
Data analysis was performed using standard methods.
The Normalization Equation used was 100*(Unknown compound response−Background response)/(Agonist Max response−Background response).
The Curve Fit Function used was y=((Vmax*x^n)/(K^n+x^n))+Y2.
A percent max response and pEC50 were recorded for each compound. Although specific pEC50 values are given, these values should be considered exemplary. Those skilled in the art will appreciate the variability in performing and recording the biological activity assays that are herein described. The compounds of the present invention provide a pEC50 of at least 5.0.

T1 sequence (O14842 whole entry): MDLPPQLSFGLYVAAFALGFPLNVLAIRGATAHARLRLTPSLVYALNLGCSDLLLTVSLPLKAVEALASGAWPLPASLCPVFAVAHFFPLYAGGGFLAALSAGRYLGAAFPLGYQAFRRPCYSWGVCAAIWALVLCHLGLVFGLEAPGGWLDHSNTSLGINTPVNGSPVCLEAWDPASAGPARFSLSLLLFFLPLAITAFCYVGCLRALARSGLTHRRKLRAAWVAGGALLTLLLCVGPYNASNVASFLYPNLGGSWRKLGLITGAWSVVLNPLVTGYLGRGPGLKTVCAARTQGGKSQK

O=C(O)[C@H]1C[C@@H]1c1ccc(NCc2cccc(Oc3cccc(C(F)(F)F)c3)c2)cc1 [Example 33, (+)-(trans)-2-(4-{[(3-{[3-(trifluoromethyl)phenyl]oxy}phenyl)methyl]amino}phenyl)cyclopropanecarboxy lic Acid]
EC50: 25.1 nM

Cc1ccc(Oc2cccc(CNc3ccc([C@H]4C[C@@H]4C(=O)O)cc3)c2)cc1 [Example 34, (+)-(trans)-2-{4-[({3-[(4-methylphenyl)oxy]phenyl}methyl)amino]phenyl}cyclopropanecarboxylic Acid Trifluoroacetate]
EC50: 7.94 nM

Cc1nc(-c2ccc(C(F)(F)F)cc2)sc1CNc1ccc(C2CC2C(=O)N[C@@H](C)c2ccccc2)cc1 (stereo partly drawn) [Example 40, Enantiomerically Enriched (trans)-2-{4-[({4-methyl-2-[4-(trifluoromethyl)phenyl]-1,3-thiazol-5-yl}methyl)amino]phenyl}-N-[(1S)-1-phenylethyl]cyclopropanecarboxamide]
EC50: 50.1 nM

Cc1nc(-c2ccc(C(F)(F)F)cc2)sc1CNc1ccc(C2CC2C(=O)NC(C)C)cc1 (stereo not drawn) [Example 53, Enantiomerically Enriched N-isopropyl-2-{4-[({4-methyl-2-[4-(trifluoromethyl)phenyl]-1,3-thiazol-5-yl}methyl)amino]phenyl}cyclopropanecarboxamide]
EC50: 10 nM

O=C(NCC1CC1)C1CC1c1ccc(NCc2cccc(Oc3ccccc3)c2)cc1 (stereo not drawn) [Example 54, Enantiomerically Enriched N-(cyclopropylmethyl)-2-{4-[(3-phenoxybenzyl)amino]phenyl}cyclopropanecarboxamide]
EC50: 20 nM

From US7834013B2, “Aminophenylcyclopropyl carboxylic acids and derivatives as agonists to GPR40” (GlaxoSmithKline LLC, priority 2003, dated 2010)
